According to US20060004019A1, “Steroid sparing agents and methods of using same” (priority 2004, published 2006):

Assays:
rat cardiac allografts [1] = assay: Rat cardiac allograft study, Allograft Study 2 (Table 20); conditions: for number of surviving grafts within each group / percent of surviving grafts within a group: s.c., GG5/3 3 mg/kg, compounds 30 mg/kg;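 on all read-outs here: lewis x Brown Norway F1 hearts grafted abdominally into male Lewis rats, palpated daily, rejection meaning complete loss of heartbeat, day 0 being surgery day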
Experimental: Hearts from Lewis X Brown Norway F1 hybrids were transplanted to the abdominal great vessels of Lewis recipients using standard microvascular techniques. Both rat strains were male inbred rats, weighing 200-300 g. Food and water was available at all times except during surgical and dosing procedures. The day of transplantation was noted as day 0. […] Allograft survival in the rats was evaluated by daily palpation of the transplanted heart through the recipient's flank. Rejection was taken as the day of complete cessation of the graft's heart beat. Upon determination of rejection, the abdomen of the recipient was incised and retracted to confirm cessation of the heart beat in the transplanted heart. If cessation of the heart beat was not confirmed the abdomen was surgically closed, and the grafted heart was evaluated daily.
Cardiac allografts were established. Dosing of compounds began on day 0, prior to transplantation and continued through day +10. […] The vehicle control, 10% ethanol/corn oil, was administered s.c., every 12 hours, day 0 through day +10. The antibody, GG5/3 in 0.9% saline, was administered at 3 mg/kg, s.c., on day 0, +3, +7 and +10. All GG5/3 animals received twice daily s.c. injections of 0.9% saline, every 12 hours, throughout day 0 through day +10. The vehicle control, 0.9% saline, was administered daily, s.c., day 0 through day +10. All dosing solutions were formulated daily at a constant dose volume of 5 ml/kg. The site of injection was rotated at each injection through four possible sites: right and left fore flank, right and left rear flank. A total of 28 allografts, amongst 5 groups, were evaluated in the study. Group 1, consisted of 6 animals treated with the monoclonal antibody, GG5/3. […] Allograft survival was evaluated by daily palpation of the transplanted heart through the recipient's flank. Rejection was taken as the day of complete cessation of graft's heart beat. Upon determination of rejection, the abdomen of the recipient was incised to confirm cessation of the heart beat in the transplanted heart. If cessation of the graft's heart beat was not confirmed the abdomen was surgically closed, and the graft was evaluated daily.

[2] = test system: Lewis X Brown Norway F1 hearts transplanted to Lewis recipients; assay: Rat cardiac allograft model, Allograft Study 1 (summary across three studies); type: in vivo; conditions: for absolute cardiac allograft survival (last day of graft survival): vehicle day +9
From the text: Allograft rejection is defined as the expression of an immune reaction of the recipient, against foreign antigens of the transplanted tissue. This reaction is mediated by T lymphocytes. Cell adhesion events are of critical importance in the T-cell recognition of alloantigens, the trafficking of recipient immune and inflammatory cells into the graft, and the execution of cell-mediated effector functions. […] This beneficial therapeutic effect correlates with decreased infiltration by α4β1 positive cells, deposition of CS1-FN, and endothelial staining for VCAM-1, as determined by immunohistology/RNAse protection assay.
To further evaluate the therapeutic potential of α4β1 targeted therapy in transplantation rejection, three studies were conducted in a well-defined rat cardiac transplant model. The following report summarizes the data across all three studies.

rat cardiac allografts [3] = assay: Rat cardiac allograft study, Allograft Study 4 (Table 22);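 further: heterotopic abdominal heart transplants from Lewis × Brown Norway F1 donors into male Lewis rats, graft beating checked daily by flank palpation, rejection defined as complete stop of heartbeat, transplant day 0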; conditions: 30 mg/kg s.c. every 12 h, day -2 to +10
Experimental: Hearts from Lewis X Brown Norway F1 hybrids were transplanted to the abdominal great vessels of Lewis recipients using standard microvascular techniques. Both rat strains were male inbred rats, weighing 200-300 g. Food and water was available at all times except during surgical and dosing procedures. The day of transplantation was noted as day 0. Twelve hours following the last dose approximately 1 ml of blood was collected into lithium/heparin anti-coagulant tubes. If any graft was rejected prior to the last day of dosing, blood samples were taken 12 hours after dosing on the day that graft rejection was noted. All blood samples were centrifuged at 3000 rpm for 10 minutes and the plasma was harvested, frozen on dry ice and stored frozen at −20 C prior to analysis. Allograft survival in the rats was evaluated by daily palpation of the transplanted heart through the recipient's flank. Rejection was taken as the day of complete cessation of the graft's heart beat. Upon determination of rejection, the abdomen of the recipient was incised and retracted to confirm cessation of the heart beat in the transplanted heart. If cessation of the heart beat was not confirmed the abdomen was surgically closed, and the grafted heart was evaluated daily.
Cardiac allografts were established. Dosing of compounds began on day −2, 2 days prior to transplantation and continued through day +10. […] The vehicle control, 0.9% saline, pH adjusted to a value of 5, to match the dosing solution containing the N-[N-(3-pyridinesulfonyl)-L-3,3-dimethyl-4-thiaprolyl]-0-[1-methylpiperazin-4-ylcarbonyl]-L-tyrosine isopropyl ester, was administered via the same route, i.e. every 12 hours, day −2 through day +10. The antibody, GG5/3 in 0.9% saline, was administered at 3 mg/kg, s.c., on day 0, +3, +7 and +10. All GG5/3 animals received twice daily s.c. injections of 0.9% saline, every 12 hours, from day −2 through day +10. The vehicle control, 0.9% saline, was administered daily, s.c., day 0 through day +10. All dosing solutions were formulated daily at a constant dose volume of 5 ml/kg. The site of injection was rotated at each injection through four possible sites: right and left fore flank, right and left rear flank. A total of 21 allografts, amongst 5 groups, were evaluated in the study. […] Two animals within the 0.9% saline group received saline adjusted to a pH a value of 5. (The pH value of the N-[N-(3-pyridinesulfonyl)-L-3,3-dimethyl-4-thiaprolyl]-0-[1-methylpiperazin-4-ylcarbonyl]-L-tyrosine isopropyl ester dosing solution.) The remaining two animals received saline of pH 7. Group 2 consisted of 6 animals treated with the monoclonal antibody, GG5/3. […] Twelve hours following the last dose approximately 1 ml of blood was collected into lithium/heparin anti-coagulant tubes. If any graft was rejected prior to the last day of dosing, blood samples were taken 12 hours after dosing on the day that graft rejection was noted. All samples were centrifuged at 3000 rpm for 10 minutes and the plasma was harvested, frozen on dry ice and stored frozen at −20 C prior to dispatch for analysis. Allograft survival in the rats was evaluated by daily palpation of the transplanted heart through the recipient's flank. Rejection was taken as the day of complete cessation of graft's heart beat. Upon determination of rejection, the abdomen of the recipient was incised to confirm cessation of the heart beat in the transplanted heart. If cessation of the heart beat was not confirmed the abdomen was surgically closed, and the graft was evaluated daily.

rat cardiac allografts [4] = assay: Rat cardiac allograft study, Allograft Study 3 (Table 21); type: in vivo; conditions: for number of surviving grafts within each group / percent of surviving grafts within a group: s.c., GG5/3 3 mg/kg, compound 30 mg/kg
Experimental: Cardiac allografts were established. […] A total of 20 allografts, amongst 4 groups, were evaluated in the study.

rat cardiac allografts [5] = assay: Rat cardiac allograft study, Allograft Study 5, dose response (Table 23); type: in vivo

Cc1ccc(S(=O)(=O)N2CCC[C@H]2C(=O)N[C@@H](Cc2ccc(OC(=O)N3CCN(CCO)CC3)cc2)C(=O)OC(C)(C)C)cc1
melting point: 158 to 160 °C

CC(C)OC(=O)[C@H](Cc1ccc(OC(=O)N(C)C)cc1)NC(=O)[C@H]1N(S(=O)(=O)c2cnn(C)c2)CSC1(C)C
number of surviving grafts within each group (rat cardiac allografts [1]; Day 0): 6
number of surviving grafts within each group (rat cardiac allografts [1]; Day 1): 6
number of surviving grafts within each group (rat cardiac allografts [1]; Day 2): 6
number of surviving grafts within each group (rat cardiac allografts [1]; Day 3): 6
number of surviving grafts within each group (rat cardiac allografts [1]; Day 4): 6
number of surviving grafts within each group (rat cardiac allografts [1]; Day 5): 6
number of surviving grafts within each group (rat cardiac allografts [1]; Day 6): 6
number of surviving grafts within each group (rat cardiac allografts [1]; Day 7): 6
number of surviving grafts within each group (rat cardiac allografts [1]; Day 8): 6
number of surviving grafts within each group (rat cardiac allografts [1]; Day 9): 6
number of surviving grafts within each group (rat cardiac allografts [1]; Day 10): 5
number of surviving grafts within each group (rat cardiac allografts [1]; Day 11): 3
number of surviving grafts within each group (rat cardiac allografts [1]; Day 12): 3
number of surviving grafts within each group (rat cardiac allografts [1]; Day 13): 2
number of surviving grafts within each group (rat cardiac allografts [1]; Day 14): 1
number of surviving grafts within each group (rat cardiac allografts [1]; Day 15): 1
number of surviving grafts within each group (rat cardiac allografts [1]; Day 16): 0
graft survival (in words) (rat cardiac allografts [1]; compounds 30 mg/kg s.c. every 12 h, GG5/3 3 mg/kg s.c. day 0, +3, +7, +10): significant graft survival, resembling the results obtained from the GG5/3 group
absolute cardiac allograft survival (last day of graft survival) [2]: 37 day
allograft acceptance compared with GG5/3 (rat cardiac allografts [3]): significantly prolong allograft acceptance beyond the level obtain with GG5/3
graft survival rate on day +19 (rat cardiac allografts [3]): Fifty percent or greater
longest surviving graft (one graft) (rat cardiac allografts [3]): 37 days
number of surviving grafts within each group (rat cardiac allografts [4]; Day 0): 6
percent of surviving grafts within a group (rat cardiac allografts [4]; Day 0): 100%
number of surviving grafts within each group (rat cardiac allografts [4]; Day 1): 6
percent of surviving grafts within a group (rat cardiac allografts [4]; Day 1): 100%
number of surviving grafts within each group (rat cardiac allografts [4]; Day 2): 6
percent of surviving grafts within a group (rat cardiac allografts [4]; Day 2): 100%
number of surviving grafts within each group (rat cardiac allografts [4]; Day 3): 6
percent of surviving grafts within a group (rat cardiac allografts [4]; Day 3): 100%
number of surviving grafts within each group (rat cardiac allografts [4]; Day 4): 6
percent of surviving grafts within a group (rat cardiac allografts [4]; Day 4): 100%
number of surviving grafts within each group (rat cardiac allografts [4]; Day 5): 6
percent of surviving grafts within a group (rat cardiac allografts [4]; Day 5): 100%
number of surviving grafts within each group (rat cardiac allografts [4]; Day 6): 6
percent of surviving grafts within a group (rat cardiac allografts [4]; Day 6): 100%
number of surviving grafts within each group (rat cardiac allografts [4]; Day 7): 6
percent of surviving grafts within a group (rat cardiac allografts [4]; Day 7): 100%
number of surviving grafts within each group (rat cardiac allografts [4]; Day 8): 6
percent of surviving grafts within a group (rat cardiac allografts [4]; Day 8): 100%
number of surviving grafts within each group (rat cardiac allografts [4]; Day 9): 4
percent of surviving grafts within a group (rat cardiac allografts [4]; Day 9): 67%
number of surviving grafts within each group (rat cardiac allografts [4]; Day 10): 4
percent of surviving grafts within a group (rat cardiac allografts [4]; Day 10): 67%
number of surviving grafts within each group (rat cardiac allografts [4]; Day 11): 3
percent of surviving grafts within a group (rat cardiac allografts [4]; Day 11): 50%
number of surviving grafts within each group (rat cardiac allografts [4]; Day 12): 3
percent of surviving grafts within a group (rat cardiac allografts [4]; Day 12): 50%
number of surviving grafts within each group (rat cardiac allografts [4]; Day 13): 1
percent of surviving grafts within a group (rat cardiac allografts [4]; Day 13): 16%
number of surviving grafts within each group (rat cardiac allografts [4]; Day 14): 1
percent of surviving grafts within a group (rat cardiac allografts [4]; Day 14): 16%
number of surviving grafts within each group (rat cardiac allografts [4]; Day 15): 1
percent of surviving grafts within a group (rat cardiac allografts [4]; Day 15): 16%
number of surviving grafts within each group (rat cardiac allografts [4]; Day 16): 1
percent of surviving grafts within a group (rat cardiac allografts [4]; Day 16): 16%
number of surviving grafts within each group (rat cardiac allografts [4]; Day 17): 0
percent of surviving grafts within a group (rat cardiac allografts [4]; Day 17): 0%
number of surviving grafts within each group (rat cardiac allografts [4]; Day 18): 0
percent of surviving grafts within a group (rat cardiac allografts [4]; Day 18): 0%
number of surviving grafts within each group (rat cardiac allografts [4]; Day 19): 0
percent of surviving grafts within a group (rat cardiac allografts [4]; Day 19): 0%
graft acceptance out to day (rat cardiac allografts [4]; compound 30 mg/kg s.c. every 12 h, day -2 to +10, GG5/3 3 mg/kg s.c. day 0, +3, +7, +10): 16 days

CC(C)OC(=O)[C@H](Cc1ccc(OC(=O)N(C)C)cc1)NC(=O)[C@H]1N(S(=O)(=O)c2cccnc2)CSC1(C)C
percent of surviving grafts within a group (rat cardiac allografts [1]; Day 0): 100%
percent of surviving grafts within a group (rat cardiac allografts [1]; Day 1): 100%
percent of surviving grafts within a group (rat cardiac allografts [1]; Day 2): 100%
percent of surviving grafts within a group (rat cardiac allografts [1]; Day 3): 100%
percent of surviving grafts within a group (rat cardiac allografts [1]; Day 4): 100%
percent of surviving grafts within a group (rat cardiac allografts [1]; Day 5): 100%
percent of surviving grafts within a group (rat cardiac allografts [1]; Day 6): 100%
percent of surviving grafts within a group (rat cardiac allografts [1]; Day 7): 100%
percent of surviving grafts within a group (rat cardiac allografts [1]; Day 8): 66%
percent of surviving grafts within a group (rat cardiac allografts [1]; Day 9): 50%
percent of surviving grafts within a group (rat cardiac allografts [1]; Day 10): 50%
percent of surviving grafts within a group (rat cardiac allografts [1]; Day 11): 16%
percent of surviving grafts within a group (rat cardiac allografts [1]; Day 12): 0%
percent of surviving grafts within a group (rat cardiac allografts [1]; Day 13): 0%
percent of surviving grafts within a group (rat cardiac allografts [1]; Day 14): 0%
percent of surviving grafts within a group (rat cardiac allografts [1]; Day 15): 0%
percent of surviving grafts within a group (rat cardiac allografts [1]; Day 16): 0%

CC(C)OC(=O)[C@H](Cc1ccc(OC(=O)N2CCN(C)CC2)cc1)NC(=O)[C@H]1N(S(=O)(=O)c2cccnc2)CSC1(C)C [Example 379]
day rejection begins (rat cardiac allografts [5]; 3 mg/kg s.c. every 12 h): 7 days
day rejection is completed (rat cardiac allografts [5]; 3 mg/kg s.c. every 12 h): ≤ 10 days
protection against graft rejection (rat cardiac allografts [5]; 3 mg/kg s.c. every 12 h): did not provide any protection against graft rejection
day rejection begins (rat cardiac allografts [5]; 10 mg/kg s.c. every 12 h): 8 days
graft survival rate (rat cardiac allografts [5]; 10 mg/kg s.c. every 12 h, by day +22): 20%
graft acceptance (in words) (rat cardiac allografts [5]; 30 mg/kg s.c. every 12 h): prolonged graft acceptance
graft survival rate (rat cardiac allografts [5]; 30 mg/kg s.c. every 12 h, day +22, study still in progress): 83%
graft survival rate on day +14 [2]: 66%
graft survival rate out to day +30 [2]: 33%
absolute cardiac allograft survival (last day of graft survival) [2]: 41 day
allograft acceptance compared with GG5/3 (rat cardiac allografts [3]): significantly prolong allograft acceptance beyond the level obtain with GG5/3
graft survival rate on day +19 (rat cardiac allografts [3]): Fifty percent or greater
longest surviving graft (one graft) (rat cardiac allografts [3]): 41 days
